Test results from patent publication US9598423B2 (BRISTOL-MYERS SQUIBB COMPANY, priority 2013, dated 2017).

target: CK1ε (Homo sapiens (Human), UniProt P49674); experiment: CK1ε kinase assay (Caliper LABCHIP electrophoretic separation of fluoresceinated peptide substrate and product); assay type: biochemical; details: 200 pM CK1ε, 50 μM ATP, 1.5 μM peptide substrate, 22 hours at room temperature; read-out: CK1ε (IC50)
Method: (§1) CK1ε and CK1δ Kinase Assays
(§2) The kinase assay was performed in V-bottom 384-well plates. […] The reaction was incubated at room temperature for 22 hours and terminated by adding 45 μl of 35 mM EDTA to each sample. The reaction mixture was analyzed on the Caliper LABCHIP®3000 (Caliper, Hopkinton, Mass.) by electrophoretic separation of the unphosphorylated substrate and phosphorylated product. […] Compounds were dissolved at 10 mM in dimethylsulfoxide (DMSO) and evaluated at eleven concentrations. IC50 values were derived by non-linear regression analysis.

CK1ε, sequence (P49674 whole entry): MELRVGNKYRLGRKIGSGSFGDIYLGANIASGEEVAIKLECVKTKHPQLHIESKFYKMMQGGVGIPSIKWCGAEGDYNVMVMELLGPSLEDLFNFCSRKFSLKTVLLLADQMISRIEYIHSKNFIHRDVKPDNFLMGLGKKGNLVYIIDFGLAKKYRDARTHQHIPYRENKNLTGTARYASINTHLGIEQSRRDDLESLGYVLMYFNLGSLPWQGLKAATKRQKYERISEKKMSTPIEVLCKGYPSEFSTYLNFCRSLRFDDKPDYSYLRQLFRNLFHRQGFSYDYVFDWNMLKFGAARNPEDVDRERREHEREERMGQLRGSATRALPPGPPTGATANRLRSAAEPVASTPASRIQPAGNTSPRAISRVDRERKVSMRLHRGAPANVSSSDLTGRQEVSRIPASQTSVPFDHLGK

Row | Compound | IC50
1 | Cc1cc(C)cc(-c2nn3c(c2C(N)=O)CN(C(=O)NC(C)(C)C)CC3)c1 [Compound 128, N^5-(tert-Butyl)-2-(3,5-dimethylphenyl)-6,7-dihydropyrazolo[1,5-a]pyrazine-3,5(4H)-dicarboxamide] | 0.01 to 10 nM
2 | N#Cc1ccc(NC(=O)N2Cc3c(C(N)=O)c(-c4ccc(F)c(Cl)c4)nn3C(CF)C2)cc1Cl (single isomer, unassigned) [Compound A15, N^5-(3-Chloro-4-cyanophenyl)-2-(3-chloro-4-fluorophenyl)-7-(fluoromethyl)-6,7-dihydropyrazolo[1,5-a]pyrazine-3,5(4H)-dicarboxamide] | 0.01 to 10 nM
3 | N#Cc1ccc(NC(=O)N2CCn3nc(-c4cnc(F)c(Cl)c4)c(C(N)=O)c3C2)cc1F [Compound 295, 2-(5-Chloro-6-fluoropyridin-3-yl)-N^5-(4-cyano-3-fluorophenyl)-6,7-dihydropyrazolo[1,5-a] pyrazine-3,5(4H)-dicarboxamide] | 0.01 to 10 nM
4 | CN(C)c1cc(Cl)cc(-c2nn3c(c2C(N)=O)CN(C(=O)Nc2ccc(C#N)c(F)c2)CC3)c1 [Compound 269, 2-(3-Chloro-5-(dimethylamino)phenyl)-N^5-(4-cyano-3-fluorophenyl)-6,7-dihydropyrazolo[1,5-a] pyrazine-3,5(4H)-dicarboxamide] | 0.01 to 10 nM
5 | N#Cc1ccc(NC(=O)N2Cc3c(C(N)=O)c(-c4ccc(F)c(Cl)c4)nn3[C@@H](CF)C2)cc1F [Compound A17, (R)-2-(3-Chloro-4-fluorophenyl)-N^5-(4-cyano-3-fluorophenyl)-7-(fluoromethyl)-6,7-dihydropyrazolo[1,5-a]pyrazine-3,5(4H)-dicarboxamide] | 0.01 to 10 nM
6 | CN(C)c1cc(Cl)cc(-c2nn3c(c2C(N)=O)CN(C(=O)Nc2ccc(C#N)c(Cl)c2)CC3)c1 [Compound 268, N^5-(3-Chloro-4-cyanophenyl)-2-(3-chloro-5-(dimethyl-amino)phenyl)-6,7-dihydropyrazolo[1,5-a] pyrazine-3,5(4H)-dicarboxamide] | 0.01 to 10 nM
7 | N#Cc1ccc(NC(=O)N2CCn3nc(-c4ccc(C5CC5)c(Cl)c4)c(C(N)=O)c3C2)cc1 [Compound 258, 2-(3-Chloro-4-cyclopropylphenyl)-N^5-(4-cyanophenyl)-6,7-dihydropyrazolo[1,5-a]pyrazine-3,5(4H)-dicarboxamide] | 0.01 to 10 nM
8 | CC1CN(C(N)=O)Cc2c(C(=O)NC(C)(C)C)c(-c3ccc(Cl)c(Cl)c3)nn21 (stereo not drawn) [Compound A33, N-(tert-Butyl)-2-(3,4-dichlorophenyl)-7-methyl-6,7-dihydropyrazolo[1,5-a]pyrazine-3,5(4H)-dicarboxamide] | 0.01 to 10 nM
9 | N#CC1(c2ccc(NC(=O)N3CCn4nc(-c5ccc(F)c(Cl)c5)c(C(N)=O)c4C3)cc2)CC1 [Compound A54, 2-(3-Chloro-4-fluorophenyl)-N^5-(4-(1-cyanocyclopropyl)phenyl)-6,7-dihydropyrazolo[1,5-a]pyrazine-3,5(4H)-dicarboxamide] | 0.01 to 10 nM
10 | N#Cc1ccc(NC(=O)N2Cc3c(C(N)=O)c(-c4ccc(F)c(Cl)c4)nn3[C@@H](C(F)F)C2)cc1 [Compound A21, (R)-2-(3-Chloro-4-fluorophenyl)-N^5-(4-cyanophenyl)-7-(difluoromethyl)-6,7-dihydropyrazolo[1,5-a]pyrazine-3,5(4H)-dicarboxamide] | 0.01 to 10 nM
11 | N#Cc1ccc(NC(=O)N2CCn3nc(-c4cc(Cl)c5ocnc5c4)c(C(N)=O)c3C2)cc1 [Compound 309, 2-(7-Chlorobenzo[d]oxazol-5-yl)-N^5-(4-cyanophenyl)-6,7-dihydropyrazolo[1,5-a]pyrazine-3,5(4H)-dicarboxamide] | 0.01 to 10 nM
12 | N#Cc1ccc(NC(=O)N2CCn3nc(-c4cc(Cl)c5[nH]ncc5c4)c(C(N)=O)c3C2)cc1 [Compound 315, 2-(7-Chloro-1H-indazol-5-yl)-N^5-(4-cyanophenyl)-6,7-dihydropyrazolo[1,5-a]pyrazine-3,5(4H)-dicarboxamide] | 0.01 to 10 nM
13 | NC(=O)c1c(-c2ccc(F)c(Cl)c2)nn2c1CN(C(=O)Nc1ccc3ccncc3c1)CC2 [Compound 196, 2-(3-Chloro-4-fluorophenyl)-N^5-(isoquinolin-7-yl)-6,7-dihydropyrazolo[1,5-a] pyrazine-3,5(4H)-dicarboxamide] | 0.01 to 10 nM
14 | N#Cc1ccc(NC(=O)N2Cc3c(C(N)=O)c(-c4ccc(F)c(Cl)c4)nn3[C@H](C(F)F)C2)cc1 [Compound A20, (S)-2-(3-Chloro-4-fluorophenyl)-N^5-(4-cyanophenyl)-7-(difluoromethyl)-6,7-dihydropyrazolo[1,5-a]pyrazine-3,5(4H)-dicarboxamide] | 0.01 to 10 nM
15 | Cc1cc(-c2nn3c(c2C(N)=O)CN(C(=O)Nc2ccc(C#N)c(C)c2)CC3)ccc1F [Compound 239, N^5-(4-Cyano-3-methylphenyl)-2-(4-fluoro-3-methylphenyl)-6,7-dihydropyrazolo[1,5-a]pyrazine-3,5(4H)-dicarboxamide] | 0.01 to 10 nM
16 | Cc1cc(NC(=O)N2CCn3nc(-c4cc(Cl)cc(N(C)C)c4)c(C(N)=O)c3C2)ccc1C#N [Compound 267, 2-(3-Chloro-5-(dimethylamino)phenyl)-N^5-(4-cyano-3-methylphenyl)-6,7-dihydropyrazolo[1,5-a] pyrazine-3,5(4H)-dicarboxamide] | 0.01 to 10 nM
17 | N#Cc1ccc(NC(=O)N2CCn3nc(-c4cc(Cl)c5cncn5c4)c(C(N)=O)c3C2)cc1 [Compound 308, 2-(8-Chloroimidazo[1,5-a]pyridin-6-yl)-N-(4-cyanophenyl)-6,7-dihydropyrazolo[1,5-a]pyrazine-3,5(4H)-dicarboxamide] | 0.01 to 10 nM
18 | NC(=O)c1c(-c2cccc(F)c2)nn2c1CN(C(=O)NC13C[C@@H]4CC1C[C@@H](C4)C3)CC2 [Compound 23, 2-(3-Fluorophenyl)-N^5-((2R,5S)-octahydro-2,5-methanopentalen-6a-yl)-6,7-dihydropyrazolo[1,5-a]pyrazine-3,5(4H)-dicarboxamide] | 0.01 to 10 nM
19 | CN(C)c1cc(Cl)cc(-c2nn3c(c2C(N)=O)CN(C(=O)Nc2ccc(C#N)cc2)CC3)c1 [Compound 265, 2-(3-Chloro-5-(dimethylamino)phenyl)-N^5-(4-cyanophenyl)-6,7-dihydropyrazolo[1,5-a]pyrazine-3,5(4H)-dicarboxamide] | 0.01 to 10 nM
20 | N#Cc1ccc(NC(=O)N2Cc3c(C(N)=O)c(-c4ccc(F)c(Cl)c4)nn3[C@H](CF)C2)cc1F [Compound A16, (S)-2-(3-Chloro-4-fluorophenyl)-N^5-(4-cyano-3-fluorophenyl)-7-(fluoromethyl)-6,7-dihydropyrazolo[1,5-a]pyrazine-3,5(4H)-dicarboxamide] | 0.01 to 10 nM

same assay, conditions: CK1ε (IC50, nM)

Row | Compound | IC50
21 | CCC1CN(C(=O)Nc2ccc(C#N)cc2)Cc2c(C(N)=O)c(-c3ccc(F)c(Cl)c3)nn21 (single isomer, unassigned) [Compound A68, 2-(3-Chloro-4-fluorophenyl)-N^5-(4-cyanophenyl)-7-ethyl-6,7-dihydropyrazolo[1,5-a]pyrazine-3,5(4H)-dicarboxamide] | 0.01 to 10 nM

same assay, conditions: read-out: CK1ε (IC50)

Row | Compound | IC50
22 | N#Cc1ccc(NC(=O)N2CCn3nc(-c4cnc(F)c(Cl)c4)c(C(N)=O)c3C2)cc1Cl [Compound 296, N^5-(3-Chloro-4-cyanophenyl)-2-(5-chloro-6-fluoropyridin-3-yl)-6,7-dihydropyrazolo[1,5-a] pyrazine-3,5(4H)-dicarboxamide] | 0.01 to 10 nM
23 | CCC1CN(C(=O)Nc2ccc(C#N)cc2)Cc2c(C(N)=O)c(-c3ccc(F)c(Cl)c3)nn21 (single isomer, unassigned) [Compound A69, 2-(3-Chloro-4-fluorophenyl)-N^5-(4-cyanophenyl)-7-ethyl-6,7-dihydropyrazolo[1,5-a]pyrazine-3,5(4H)-dicarboxamide] | 0.01 to 10 nM

target: CK1δ (Homo sapiens (Human), UniProt P48730); experiment: CK1δ kinase assay (Caliper LABCHIP electrophoretic separation of fluoresceinated peptide substrate and product); assay type: biochemical; details: 200 pM CK1δ, 50 μM ATP, 1.5 μM peptide substrate, 22 hours at room temperature; read-out: CK1δ (IC50)
Sequence (P48730 whole entry): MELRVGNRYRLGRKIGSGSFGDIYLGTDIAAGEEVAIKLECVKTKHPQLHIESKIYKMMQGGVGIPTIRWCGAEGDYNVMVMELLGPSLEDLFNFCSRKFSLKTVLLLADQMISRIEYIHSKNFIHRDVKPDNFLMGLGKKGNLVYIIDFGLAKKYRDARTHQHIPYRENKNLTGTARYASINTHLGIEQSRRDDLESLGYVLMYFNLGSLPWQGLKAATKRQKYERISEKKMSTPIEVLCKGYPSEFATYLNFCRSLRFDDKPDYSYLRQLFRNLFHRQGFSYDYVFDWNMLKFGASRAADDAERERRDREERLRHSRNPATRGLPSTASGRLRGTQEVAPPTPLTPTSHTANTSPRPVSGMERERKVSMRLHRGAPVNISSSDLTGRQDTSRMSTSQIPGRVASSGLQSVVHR
Method: as §1, §2

Row | Compound | IC50
24 | NC(=O)c1c(-c2cccc(F)c2)nn2c1CN(C(=O)Nc1cc(Cl)ccc1F)CC2 [Compound 33, N^5-(5-Chloro-2-fluorophenyl)-2-(3-fluorophenyl)-6,7-dihydropyrazolo[1,5-a]pyrazine-3,5(4H)-dicarboxamide] | 0.01 to 10 nM
25 | NC(=O)c1c(-c2cccc(F)c2)nn2c1CN(C(=O)Nc1cncnc1)CC2 [Compound 84, 2-(3-Fluorophenyl)-N^5-(pyrimidin-5-yl)-6,7-dihydropyrazolo[1,5-a]pyrazine-3,5(4H)-dicarboxamide] | 0.01 to 10 nM
26 | N#Cc1ccc(NC(=O)N2Cc3c(C(N)=O)c(-c4ccc(F)c(Cl)c4)nn3[C@@H](C(F)F)C2)cc1F [Compound A23, (R)-2-(3-Chloro-4-fluorophenyl)-N^5-(4-cyano-3-fluorophenyl)-7-(difluoromethyl)-6,7-dihydropyrazolo[1,5-a]pyrazine-3,5(4H)-dicarboxamide] | 0.01 to 10 nM
27 | NC(=O)c1c(-c2cccc(F)c2)nn2c1CN(C(=O)Nc1ccc(F)c(F)c1)CC2 [Compound 29, N^5-(3,4-Difluorophenyl)-2-(3-fluorophenyl)-6,7-dihydropyrazolo[1,5-a]pyrazine-3,5(4H)-dicarboxamide] | 0.01 to 10 nM
28 | N#Cc1ccc(NC(=O)N2Cc3c(C(N)=O)c(-c4ccc(F)c(Cl)c4)nn3C(C(F)F)C2)cc1Cl (stereo not drawn) [Compound A19, N^5-(3-Chloro-4-cyanophenyl)-2-(3-chloro-4-fluorophenyl)-7-(difluoromethyl)-6,7-dihydropyrazolo[1,5-a]pyrazine-3,5(4H)-dicarboxamide] | 0.01 to 10 nM
29 | CSc1cccc(-c2nn3c(c2C(N)=O)CN(C(=O)NC(C)(C)C)CC3)c1 [Compound 150, N^5-(tert-Butyl)-2-(3-(methylthio)phenyl)-6,7-dihydropyrazolo[1,5-a]pyrazine-3,5(4H)-dicarboxamide] | 0.01 to 10 nM
30 | CC(C)(C)NC(=O)N1CCn2nc(-c3cc(F)cc(F)c3)c(C(N)=O)c2C1 [Compound 105, N^5-(tert-Butyl)-2-(3,5-difluorophenyl)-6,7-dihydropyrazolo[1,5-a]pyrazine-3,5(4H)-dicarboxamide] | 0.01 to 10 nM
